Test results as given in ChEMBL document CHEMBL2406999, “Vialinin A is a ubiquitin-specific peptidase inhibitor” (Bioorg Med Chem Lett, 2013).
Each block holds one compound with its values, some of them ahead of it. Activity calls are given as the source filed them. The calls are words filed in the database; no cut-off is given here. Square brackets hold non-standard residues; d marks the D form. Peptide text beside a SMILES is read from it. * marks the point of attachment. Nle = CCCC[C@H](N)C(=O)O; Cbz = O=C(OCc1ccccc1)*

Experiments:
[1] = target: Ubiquitin carboxyl-terminal hydrolase 9X (Homo sapiens, UniProt Q93008); assay: Inhibition of USP9x in human Z138 cells after 1 hr by immunoblotting analysis; type: cell-based
Sequence of Ubiquitin carboxyl-terminal hydrolase 9X (Q93008 whole entry): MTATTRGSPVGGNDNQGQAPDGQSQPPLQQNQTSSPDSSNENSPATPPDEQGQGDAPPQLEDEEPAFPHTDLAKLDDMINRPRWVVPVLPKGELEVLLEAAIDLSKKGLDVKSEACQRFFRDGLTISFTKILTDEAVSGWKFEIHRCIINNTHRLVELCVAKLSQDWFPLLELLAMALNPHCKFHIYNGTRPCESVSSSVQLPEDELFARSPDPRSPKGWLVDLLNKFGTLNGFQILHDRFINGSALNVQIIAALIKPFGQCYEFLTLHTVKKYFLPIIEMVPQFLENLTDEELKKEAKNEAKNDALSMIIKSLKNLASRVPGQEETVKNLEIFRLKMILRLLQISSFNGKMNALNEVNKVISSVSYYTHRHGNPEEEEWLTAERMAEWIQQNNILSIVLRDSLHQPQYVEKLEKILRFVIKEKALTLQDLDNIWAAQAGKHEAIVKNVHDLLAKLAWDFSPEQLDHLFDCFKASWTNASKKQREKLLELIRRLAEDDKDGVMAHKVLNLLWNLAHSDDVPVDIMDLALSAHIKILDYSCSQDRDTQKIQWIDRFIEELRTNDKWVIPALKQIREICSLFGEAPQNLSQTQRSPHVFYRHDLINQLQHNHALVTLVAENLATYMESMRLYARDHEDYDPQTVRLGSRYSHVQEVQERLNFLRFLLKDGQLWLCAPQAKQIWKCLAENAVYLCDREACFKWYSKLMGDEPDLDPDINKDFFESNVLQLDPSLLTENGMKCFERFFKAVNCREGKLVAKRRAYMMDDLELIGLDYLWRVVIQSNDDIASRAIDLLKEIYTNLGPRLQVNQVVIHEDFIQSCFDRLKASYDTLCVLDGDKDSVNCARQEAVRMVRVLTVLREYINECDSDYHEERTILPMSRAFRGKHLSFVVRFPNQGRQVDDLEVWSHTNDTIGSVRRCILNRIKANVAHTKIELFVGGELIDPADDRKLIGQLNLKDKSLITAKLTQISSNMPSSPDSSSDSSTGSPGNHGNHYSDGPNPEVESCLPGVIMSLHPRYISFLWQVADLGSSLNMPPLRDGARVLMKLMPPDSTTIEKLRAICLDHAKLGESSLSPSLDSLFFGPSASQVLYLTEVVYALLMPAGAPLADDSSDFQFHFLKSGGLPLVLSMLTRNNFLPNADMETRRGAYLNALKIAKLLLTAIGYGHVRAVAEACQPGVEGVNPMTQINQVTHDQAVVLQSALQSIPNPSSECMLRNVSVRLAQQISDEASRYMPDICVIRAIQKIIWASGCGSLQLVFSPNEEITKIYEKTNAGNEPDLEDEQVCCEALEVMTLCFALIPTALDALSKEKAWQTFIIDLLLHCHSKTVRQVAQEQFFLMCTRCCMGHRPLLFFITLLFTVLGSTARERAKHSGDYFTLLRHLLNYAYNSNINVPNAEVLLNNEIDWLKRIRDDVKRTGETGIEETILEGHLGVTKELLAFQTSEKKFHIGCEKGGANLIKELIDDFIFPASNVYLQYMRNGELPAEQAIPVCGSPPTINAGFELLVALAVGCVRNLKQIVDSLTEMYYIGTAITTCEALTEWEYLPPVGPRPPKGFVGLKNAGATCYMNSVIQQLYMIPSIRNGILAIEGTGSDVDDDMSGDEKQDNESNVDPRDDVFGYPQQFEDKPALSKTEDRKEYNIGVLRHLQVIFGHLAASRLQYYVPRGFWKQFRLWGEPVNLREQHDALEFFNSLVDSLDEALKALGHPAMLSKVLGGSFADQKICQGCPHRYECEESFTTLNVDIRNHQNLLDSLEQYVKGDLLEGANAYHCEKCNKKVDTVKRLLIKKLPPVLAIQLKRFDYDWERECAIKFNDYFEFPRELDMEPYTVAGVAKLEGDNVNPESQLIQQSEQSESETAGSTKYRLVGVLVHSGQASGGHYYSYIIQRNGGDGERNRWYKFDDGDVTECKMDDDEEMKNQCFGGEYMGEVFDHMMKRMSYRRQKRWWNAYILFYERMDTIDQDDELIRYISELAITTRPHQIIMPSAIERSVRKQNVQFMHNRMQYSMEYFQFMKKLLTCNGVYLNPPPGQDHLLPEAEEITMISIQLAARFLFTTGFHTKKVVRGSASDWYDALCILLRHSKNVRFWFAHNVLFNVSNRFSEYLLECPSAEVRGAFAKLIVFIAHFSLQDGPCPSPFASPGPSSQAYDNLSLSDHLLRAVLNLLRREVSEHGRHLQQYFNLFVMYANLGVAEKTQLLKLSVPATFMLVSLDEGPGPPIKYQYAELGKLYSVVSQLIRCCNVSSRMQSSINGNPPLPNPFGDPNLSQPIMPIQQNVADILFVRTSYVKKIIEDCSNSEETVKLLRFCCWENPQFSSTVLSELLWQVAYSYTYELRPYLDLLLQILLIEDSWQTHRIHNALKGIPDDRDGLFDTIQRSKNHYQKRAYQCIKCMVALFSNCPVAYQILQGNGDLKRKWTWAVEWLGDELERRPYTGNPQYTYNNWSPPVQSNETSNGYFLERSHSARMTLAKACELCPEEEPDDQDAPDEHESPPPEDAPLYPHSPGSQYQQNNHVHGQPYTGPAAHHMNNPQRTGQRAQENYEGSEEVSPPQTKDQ

[2] = target: T1, Ubiquitin carboxyl-terminal hydrolase isozyme L1 (Homo sapiens, UniProt P09936); assay: Inhibition of UCH-L1 in human Z138 cells after 1 hr by immunoblotting analysis; type: cell-based
T1 sequence (P09936 whole entry): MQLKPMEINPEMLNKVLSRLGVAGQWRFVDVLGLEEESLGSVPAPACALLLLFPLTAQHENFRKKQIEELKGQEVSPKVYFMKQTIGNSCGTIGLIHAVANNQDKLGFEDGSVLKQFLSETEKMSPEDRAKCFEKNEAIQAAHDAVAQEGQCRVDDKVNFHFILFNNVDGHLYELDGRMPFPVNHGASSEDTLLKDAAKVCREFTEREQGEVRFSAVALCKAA

[3] = target: T2, Ubiquitin carboxyl-terminal hydrolase 5 (Homo sapiens, UniProt P45974); assay: Inhibition of USP5 in human Z138 cells after 1 hr by immunoblotting analysis; type: cell-based
T2 sequence (P45974 whole entry): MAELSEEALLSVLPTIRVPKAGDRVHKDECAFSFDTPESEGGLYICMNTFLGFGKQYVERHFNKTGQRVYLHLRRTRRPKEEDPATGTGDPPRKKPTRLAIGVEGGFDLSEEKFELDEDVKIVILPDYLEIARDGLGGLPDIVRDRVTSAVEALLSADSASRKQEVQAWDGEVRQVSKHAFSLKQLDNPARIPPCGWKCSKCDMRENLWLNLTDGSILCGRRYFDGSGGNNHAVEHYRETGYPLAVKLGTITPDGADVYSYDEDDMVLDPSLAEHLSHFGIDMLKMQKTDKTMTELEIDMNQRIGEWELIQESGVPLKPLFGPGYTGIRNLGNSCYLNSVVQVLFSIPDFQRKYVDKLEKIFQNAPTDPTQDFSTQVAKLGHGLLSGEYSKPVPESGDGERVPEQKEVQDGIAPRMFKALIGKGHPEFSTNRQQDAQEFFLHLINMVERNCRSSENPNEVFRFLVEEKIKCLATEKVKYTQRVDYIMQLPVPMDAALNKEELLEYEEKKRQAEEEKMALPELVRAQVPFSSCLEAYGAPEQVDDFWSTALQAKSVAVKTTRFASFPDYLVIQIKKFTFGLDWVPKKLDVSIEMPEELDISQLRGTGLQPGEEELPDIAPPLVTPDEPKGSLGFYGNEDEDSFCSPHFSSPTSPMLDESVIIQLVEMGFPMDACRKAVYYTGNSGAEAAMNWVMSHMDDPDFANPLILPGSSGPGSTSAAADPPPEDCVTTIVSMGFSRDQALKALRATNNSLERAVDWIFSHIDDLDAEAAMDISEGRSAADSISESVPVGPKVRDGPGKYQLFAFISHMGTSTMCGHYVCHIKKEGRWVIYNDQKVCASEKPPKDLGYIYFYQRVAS

[4] = target: T3, Ubiquitin carboxyl-terminal hydrolase 5 (Homo sapiens) (UniProt P45974); assay: Inhibition of human USP5 using Ub4 as substrate at 50 uM after 10 mins by SDS-PAGE analysis
T3 sequence (whole entry): T2 sequence (P45974 whole entry)

[5] = target: T3, Ubiquitin carboxyl-terminal hydrolase 5 (Homo sapiens); assay: Inhibition of wild type human USP5 expressed in Escherichia coli BL21(DE3) using K48-linked tetraubiquitin as substrate assessed as substrate hydrolysis at 20 uM after 15 mins by SDS-PAGE analysis
[6] = target: T3, Ubiquitin carboxyl-terminal hydrolase 5 (Homo sapiens); assay: Competitive binding affinity to human recombinant USP5 after 1 hr by SDS-PAGE analysis in presence of biotin-DMT
[7] = target: T4, Ubiquitin carboxyl-terminal hydrolase 4 (Homo sapiens) (UniProt Q13107); assay: Inhibition of human USP4 using Ub-AMC as substrate at 1 to 20 uM after 10 mins by fluorometric analysis
T4 sequence (whole entry): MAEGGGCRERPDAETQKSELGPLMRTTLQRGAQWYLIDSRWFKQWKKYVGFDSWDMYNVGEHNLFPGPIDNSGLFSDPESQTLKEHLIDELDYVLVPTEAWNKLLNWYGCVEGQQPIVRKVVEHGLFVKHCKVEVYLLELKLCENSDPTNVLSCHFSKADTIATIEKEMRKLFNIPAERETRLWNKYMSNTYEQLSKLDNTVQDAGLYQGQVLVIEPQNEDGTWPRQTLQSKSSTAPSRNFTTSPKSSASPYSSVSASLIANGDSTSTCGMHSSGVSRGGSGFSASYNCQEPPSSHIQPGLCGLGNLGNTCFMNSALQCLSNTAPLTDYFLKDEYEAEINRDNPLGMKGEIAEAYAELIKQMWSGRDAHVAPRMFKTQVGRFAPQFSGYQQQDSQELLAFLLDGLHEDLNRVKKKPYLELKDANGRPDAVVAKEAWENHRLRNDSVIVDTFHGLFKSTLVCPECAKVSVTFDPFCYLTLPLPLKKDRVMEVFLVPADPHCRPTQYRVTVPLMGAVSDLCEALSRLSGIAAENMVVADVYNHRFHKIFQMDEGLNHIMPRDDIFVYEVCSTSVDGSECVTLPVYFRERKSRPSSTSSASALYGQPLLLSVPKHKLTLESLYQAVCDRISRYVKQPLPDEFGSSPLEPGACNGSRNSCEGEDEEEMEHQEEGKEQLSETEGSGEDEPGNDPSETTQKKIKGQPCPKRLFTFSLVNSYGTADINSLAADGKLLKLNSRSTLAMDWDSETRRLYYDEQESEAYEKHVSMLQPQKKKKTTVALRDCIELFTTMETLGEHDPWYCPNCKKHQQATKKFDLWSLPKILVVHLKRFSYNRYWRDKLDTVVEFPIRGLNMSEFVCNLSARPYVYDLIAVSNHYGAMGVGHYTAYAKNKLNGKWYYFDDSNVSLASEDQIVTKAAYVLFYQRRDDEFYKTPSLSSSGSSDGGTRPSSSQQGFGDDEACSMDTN

[8] = target: T3, Ubiquitin carboxyl-terminal hydrolase 5 (Homo sapiens); assay: Inhibition of human USP5 using Ub-AMC as substrate at 1 to 20 uM after 10 mins by fluorometric analysis
[9] = target: Ubiquitin carboxyl-terminal hydrolase isozyme L1 (Homo sapiens) (UniProt P09936); assay: Inhibition of human UCH-L1 using Ub-AMC as substrate at 1 to 20 uM after 10 mins by fluorometric analysis
[10] = target: T4, Ubiquitin carboxyl-terminal hydrolase 4 (Homo sapiens); assay: Binding affinity to human USP4 after 1 hr by SDS-PAGE analysis
[11] = target: Ubiquitin carboxyl-terminal hydrolase isozyme L1 (Homo sapiens) (UniProt P09936); assay: Binding affinity to human UCH-L1 after 1 hr by SDS-PAGE analysis
[12] = target: T3, Ubiquitin carboxyl-terminal hydrolase 5 (Homo sapiens); assay: Binding affinity to human recombinant USP5 by SDS-PAGE analysis
RBL-2H3 = assay: Binding affinity to USP5 in rat RBL2H3 cell extracts at 1 to 100 uM by SDS-PAGE analysis; type: cell-free
[13] = target: T3, Ubiquitin carboxyl-terminal hydrolase 5 (Homo sapiens); assay: Inhibition of wild type human USP5 expressed in Escherichia coli BL21(DE3) using K48-linked tetraubiquitin as substrate assessed as substrate hydrolysis at 5 to 50 uM after 15 mins by SDS-PAGE analysis

SMILES: CCC[C@H](NC(=O)/C(C#N)=C/c1cccc(Br)n1)c1ccccc1
IC50 [1]: 3 µM | IC50 [2]: 3 µM | IC50 [3]: 3 µM

SMILES: Cc1c(C)c(-c2ccc(O)cc2)c(O)c(O)c1-c1ccc(O)cc1
inhibition [5]: Active | Activity [6]: Active | inhibition [7]: Active | inhibition [8]: Active | inhibition [9]: Active

SMILES: CCCC[C@@H](C=O)NC(=O)[C@H](CC(C)C)NC(=O)[C@H](CC(C)C)NC(C)=O (Ac-Leu-Leu-[Nle]-aldehyde)
inhibition [4]: inactive

SMILES: CC(C)C[C@H](NC(=O)OCc1ccccc1)C(=O)N[C@H](C=O)Cc1ccccc1 (Cbz-Leu-Phe-aldehyde)
inhibition [4]: inactive

Second part, led by results:

inhibition [4]: inactive
SMILES: COc1ccc(C(=O)ONC(=O)CNC(=O)[C@H](Cc2ccccc2)NC(=O)OCc2ccccc2)cc1

inhibition [10]: Active | inhibition [11]: inactive | Activity [12]: Active | inhibition [13]: Active
SMILES: Cc1c(C)c(-c2ccc(OCc3cn(CCCCCCNC(=O)CCCC[C@@H]4SC[C@@H]5NC(=O)N[C@@H]54)nn3)cc2)c(O)c(O)c1-c1ccc(O)cc1
Activity (RBL-2H3): Active

Activity [12]: inactive
SMILES: O=C(CCCC[C@@H]1SC[C@@H]2NC(=O)N[C@@H]21)NCCCCCCn1cc(COc2ccccc2)nn1
